Data on 57 compounds can be found in patent US20190185479A1, “BICYCLIC NITROGENATED HETEROCYCLIC COMPOUND” (MITSUBISHI TANABE PHARMA CORPORATION, priority 2016, published 2019).

Where a name gives a salt, the structure may show the parent alone.

T1 sequence (Q9NP56 whole entry): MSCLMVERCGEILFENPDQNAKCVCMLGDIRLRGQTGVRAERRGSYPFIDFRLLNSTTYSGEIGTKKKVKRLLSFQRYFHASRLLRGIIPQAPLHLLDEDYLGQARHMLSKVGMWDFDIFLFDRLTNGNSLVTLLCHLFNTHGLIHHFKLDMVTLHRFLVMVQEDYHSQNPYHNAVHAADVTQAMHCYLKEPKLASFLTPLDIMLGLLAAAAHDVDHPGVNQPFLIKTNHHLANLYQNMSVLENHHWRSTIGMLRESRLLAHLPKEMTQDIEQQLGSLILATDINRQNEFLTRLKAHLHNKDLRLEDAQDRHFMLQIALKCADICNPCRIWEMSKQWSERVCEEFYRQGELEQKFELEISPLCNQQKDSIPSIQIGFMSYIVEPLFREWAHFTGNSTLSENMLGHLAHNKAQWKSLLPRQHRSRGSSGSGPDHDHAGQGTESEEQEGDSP

This assay has as its target T1, Human PDE7B (hPDE7B) (Homo sapiens, UniProt Q9NP56).
T1 construct: made in house; host or cells: COS-7 cells
Briefly: Measurement of PDE7 inhibitory activity (Experimental Example 1; residual cAMP, LANCE Ultra cAMP TR-FRET). It counts as biochemical. The following applies: cAMP 3 nmol/L, room temperature 60 minutes. As for the experimental part:
Human PDE7B (hPDE7B) was isolated from COS-7 cells transfected with plasmids encoding hPDE7B according to the method described in a reference, Biochemical and Biophysical Research Communication, 271, p. 575-583 (2000). The resulting enzyme solution was used in the PDE assay.
PDE7 inhibitory assay was carried out by reacting the mixture of a compound, hPDE7B, and cAMP, and measuring the residual cAMP by a detection method using LANCE (registered trademark) Ultra cAMP Detection Kit (ParkinElmer). The compound was dissolved in DMSO, and diluted so that the concentration would become 50 times of the final concentration. The hPDE7B and cAMP were diluted with an assay buffer (50 mmol/L Tris-HCl, 1 mmol/L MgCl2, 0.1% BSA, 0.5 mmol/L DTT, pH7.5) so that the hPDE7B would have an appropriate enzyme activity and the concentration of cAMP would become 6 nmol/L. To a 96 well plate were added the compound (2 μL) (DMSO final concentration: 2%), hPDE7B (48 μL), and cAMP (50 μL) (concentration at the reaction: 3 nmol/L), and the resulting mixture was reacted at room temperature for 60 minutes. The reaction solution (20 μL) was subjected to a TR-FRET method according to the protocol specified by the kit to measure the concentration of the residual cAMP. In the assay, to a tracer solution specified by the kit was added 0.5 mmol/L of 3-isobutyl-1-methylxanthine (IBMX, nonselective PDE inhibitor) in order to stop the PDE enzyme reaction after the completion of reaction until the measurement.
The reaction without a compound was defined as “0% inhibition”, the reaction without hPDE7B was defined as “100% inhibition”, and the inhibition rate of the compound was calculated by the following equation.
Inhibition rate of compound (%)={(Residual cAMP concentration at the addition of compound−Residual cAMP concentration in 0% inhibition)/(Residual cAMP concentration in 100% inhibition−Residual cAMP concentration in 0% inhibition)}×100
(In general: Time-resolved FRET reads energy transfer from a long-lived donor to a nearby acceptor.)
A word on the IC50: it is the point on the concentration scale where inhibition reaches its midpoint. Lower therefore signals greater potency. Compound `C[C@@H](c1ccc(F)cc1)n1nnc2c(N)ncnc21` [Example 16] displayed an IC50 of 350 nM. `Nc1nccn2c(C3CCC3)nnc12` [Example 18] gave an IC50 of 460 nM. As to `C=C1CC(c2nnc3c(N)nccn23)C1` [Example 19, 3-(3-methylenecyclobutyl)-[1,2,4]triazolo[4,3-a]pyrazin-8-amine], the IC50 turned out to be 240 nM.

Compound `C[C@H]1CCCCN1c1nnc2c(N)nccn12` [Example 21, 3-(2-methylpiperidin-1-yl) [1,2,4]triazolo[4,3-a]pyrazin-8-amine] showed an IC50 of 90 nM. `CCC1CCCN(c2nnc3c(N)nccn23)C1` (stereo not drawn) [Example 25]: the IC50 was 190 nM. `Nc1nccn2c(N3CCCC(F)C3)nnc12` (stereo not drawn) [Example 27] showed an IC50 of 320 nM.

`Nc1nccn2c(N3CCCCCCC3)nnc12` [Example 30] displayed an IC50 of 390 nM. Regarding `Nc1nccn2c(N3C[C@H]4C[C@H]4C3)nnc12` [Example 31], the IC50 is 480 nM. `Nc1ncnc2c1nnn2C1CCCc2ccccc21` (stereo not drawn) [Example 33] had an IC50 of 520 nM.

Turning to `Nc1ncnc2c1nnn2C1CCc2ccccc2C1` (stereo not drawn) [Example 34], the half-inhibitory concentration (IC50) amounted to 460 nM. As for `Nc1ncnc2c1nnn2C1CCC1` [Example 35], the figure is 200 nM. The value for `CC1(C)CCCCN1c1nnc2c(N)nccn12` [Example 36, 3-(2,2-dimethylpiperidin-1-yl)-[1,2,4]triazolo[4,3-a]pyrazin-8-amine] was 380 nM. As for `CC(C)C1CCCCN1c1nnc2c(N)nccn12` (stereo not drawn) [Example 37], the figure is 490 nM; as for `Nc1nccn2c(N3CCCCC3C(F)(F)F)nnc12` (stereo not drawn) [Example 39], 220 nM. Turning to `Nc1nccn2c(N3CCCCC3Cc3ccccc3)nnc12` (stereo not drawn) [Example 40], half-maximal inhibition (IC50) required 730 nM. With `Nc1nccn2c(N3CCCCC3c3ccccc3)nnc12` (stereo not drawn) [Example 41], the IC50 turned out to be 290 nM. The value for `Nc1nccn2c(N3CCCC4(CCCC4)C3)nnc12` [Example 45] was 210 nM; that for `Nc1nccn2c(N3CCCC(F)(F)C3)nnc12` [Example 47] was 300 nM. The value for `Nc1nccn2c(N3CCCC(c4ccccc4)C3)nnc12` (stereo not drawn) [Example 49] was 260 nM; that for `CCC1CCN(c2nnc3c(N)nccn23)CC1` [Example 50] was 520 nM.

`CC1(C)CCN(c2nnc3c(N)nccn23)CC1` [Example 51] showed an IC50 of 110 nM. `C[C@@H]1CCC[C@@H](C)N1c1nnc2c(N)nccn12` [Example 63]: the half-maximal inhibitory concentration (IC50) worked out at 304 nM.

`C[C@H]1CCC[C@H](C)N1c1nnc2c(N)nccn12` [Example 64] displayed an IC50 of 107 nM. The value for `Nc1nccn2c(N3C4CCC3CC4)nnc12` [Example 66] was 360 nM; that for `Nc1nccn2c(N3CCC4(CC3)CC4)nnc12` [Example 78] was 140 nM; that for `CC1(C)CCCN(c2nnc3c(N)ncc(-c4ccccc4)n23)C1` [Example 81] was 160 nM. As for `Nc1nccn2c(C3CC(F)(F)C3)nnc12` [Example 84, 3-(3,3-difluorocyclobutyl)-[1,2,4]triazolo[4,3-a]pyrazin-8-amine], the figure is 730 nM. The value for `Nc1ncnc2c1nnn2C1CCCCC1` [Example 85, 3-cyclohexyl-3H-[1,2,3]triazolo[4,5-d]pyrimidin-7-amine hydrochloride] was 40 nM; that for `Nc1ncnc2c1nnn2[C@@H]1CCCC(F)(F)C1` [Example 88] was 840 nM. The compound `Nc1ncnc2c1nnn2[C@H]1CCCOC1` [Example 91] gave a half-maximal inhibitory concentration (IC50) of 360 nM. As for `CCOc1nc(N)c2nnn(C3CCCCC3)c2n1` [Example 93, 3-cyclohexyl-5-ethoxy-3H-[1,2,3]triazolo[4,5-d]pyrimidin-7-amine], the figure is 20 nM. The compound `Nc1ncnc2c1nnn2[C@H]1CC[C@@H](C(F)(F)F)CC1` [Example 102] yielded an IC50 of 250 nM. The value for `Nc1ncnc2c1nnn2[C@H]1CC[C@H](C(F)(F)F)CC1` [Example 103] was 450 nM; that for `C[C@@H]1C[C@H](C)C[C@@H](n2nnc3c(N)ncnc32)C1` [Example 105] was 310 nM.

In the case of `CC1CC(n2nnc3c(N)ncnc32)CC(C)(C)C1` (stereo not drawn) [Example 108], inhibition was half-maximal at 230 nM (IC50). The value for `Nc1ncnc2c1nnn2C1CCCCC1F` (stereo not drawn) [Example 112] was 170 nM; that for `COC1CCCCC1n1nnc2c(N)ncnc21` (stereo not drawn) [Example 116] was 380 nM.

`CCC1CCCC(n2nnc3c(N)ncnc32)C1` (stereo not drawn) [Example 117] gave an IC50 of 80 nM. As for `Nc1ncnc2c1nnn2C1CCCC(C(F)F)C1` (stereo not drawn) [Example 119], the figure is 20 nM; as for `Nc1ncnc2c1nnn2C1CCCC(CC(F)(F)F)C1` (stereo not drawn) [Example 120], 380 nM; as for `COC1CCCC(n2nnc3c(N)ncnc32)C1` (stereo not drawn) [Example 121], 870 nM.

Regarding `COC1CCCC(n2nnc3c(N)ncnc32)C1` (stereo not drawn) [Example 123], half-maximal inhibition (IC50) was put at 420 nM.

In turn, `Nc1ncnc2c1nnn2C1CCCC(CO)C1` (stereo not drawn) [Example 124] had a half-maximal inhibitory concentration (IC50) of 260 nM. As for `Cc1cnc(C2CCCC(n3nnc4c(N)ncnc43)C2)s1` (stereo not drawn) [Example 127], the figure is 730 nM; as for `Cc1ccc(F)c(-n2nnc3c(N)ncnc32)c1` [Example 129], 750 nM; as for `Nc1ncnc2c1nnn2-c1cccc(C(F)(F)F)c1` [Example 130], 490 nM. The value for `Nc1ncnc2c1nnn2-c1cccc(C(=O)NCc2ccccc2)c1` [Example 131] was 250 nM; that for `CC(C)[C@@H]1CC[C@@H](C)[C@@H](n2nnc3c(N)ncnc32)C1` [Example 132, 3-[(1S,2R,5R)-2-methyl-5-(propan-2-yl)cyclohexyl]-3H-[1,2,3]triazolo[4,5-d]pyrimidin-7-amine] was 670 nM; that for `CC1CC(c2nnc3c(N)nccn23)C1` (stereo not drawn) [Example 133, 3-(3-methylcyclobutyl)-[1,2,4]triazolo[4,3-a]pyrazin-8-amine] was 160 nM. As for `CC(C)[C@H]1CC[C@H](C)[C@H](n2nnc3c(N)ncnc32)C1` [Example 134, 3-[(1R,2S,5S)-2-methyl-5-(propan-2-yl)cyclohexyl]-3H-[1,2,3]triazolo[4,5-d]pyrimidin-7-amine], the figure is 330 nM.

`Nc1ncnc2c1nnn2[C@@H]1CCCN(c2ccccc2)C1` [Example 136, 3-[(3R)-1-phenylpiperidin-3-yl]-3H-[1,2,3]triazolo[4,5-d]pyrimidin-7-amine]: the IC50 came to 680 nM.

`Nc1ncnc2c1nnn2[C@H]1CCCN(Cc2ccccc2)C1` [Example 138, 3-[(3S)-1-benzylpiperidin-3-yl]-3H-[1,2,3]triazolo[4,5-d]pyrimidin-7-amine] came in with an IC50 of 340 nM. The value for `Nc1ncnc2c1nnn2-c1cccc(OCc2ccccc2)c1` [Example 139, 3-[3-(benzyloxy)phenyl]-3H-[1,2,3]triazolo[4,5-d]pyrimidin-7-amine] was 90 nM; that for `Nc1nccn2c(C3CCCC(C(F)(F)F)C3)nnc12` (stereo not drawn) [Example 147] was 700 nM; that for `Nc1nccn2c(C3CCC(F)(F)CC3)nnc12` [Example 150] was 130 nM.

In turn, `CC1CC(c2nnc3c(N)nccn23)CC(F)(F)C1` (stereo not drawn) [Example 154] gave an IC50 of 110 nM. As for `Nc1nccn2c(C3CC(C(F)(F)F)CC(F)(F)C3)nnc12` (stereo not drawn) [Example 157], the figure is 920 nM.
